Results published in patent US12630540B2, “(4-(6-((2-octahydrocyclopenta[c]pyrrol-5-yl)amino)pyridazin-3-yl)phenyl)(imino)(methyl)-LAMBDA6-sulfanone derivatives and similar compounds as muscarinic acetylcholine receptor M4 antagonists for the treatment of neurodegenerative disorders” (Vanderbilt University, priority 2021, dated 2026).

Target: T1, Human M4 (Homo sapiens, UniProt P08173)
T1 construct: expressed in transfected cells; host or cells: CHO-K1 (ATCC), stably expressing M4 and Gqi5
T1 sequence (P08173 1-479): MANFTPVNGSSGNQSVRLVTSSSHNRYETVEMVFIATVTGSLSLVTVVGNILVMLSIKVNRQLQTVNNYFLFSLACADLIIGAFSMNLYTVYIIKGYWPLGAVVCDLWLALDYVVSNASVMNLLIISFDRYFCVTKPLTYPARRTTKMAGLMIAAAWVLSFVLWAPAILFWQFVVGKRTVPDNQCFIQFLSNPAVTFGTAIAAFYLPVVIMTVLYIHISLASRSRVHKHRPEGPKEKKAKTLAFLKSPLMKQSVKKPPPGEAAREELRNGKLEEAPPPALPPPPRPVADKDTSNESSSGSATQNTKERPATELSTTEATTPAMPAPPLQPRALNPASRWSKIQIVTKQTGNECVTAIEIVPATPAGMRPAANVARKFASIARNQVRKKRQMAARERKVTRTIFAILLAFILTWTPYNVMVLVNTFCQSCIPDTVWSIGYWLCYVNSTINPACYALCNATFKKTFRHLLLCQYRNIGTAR
Assay: mAChR M4 cell-based functional assay (calcium flux, antagonism of EC80 acetylcholine response)
Conditions: M4/Gqi5 CHO-K1 cells; for Human M4 Emin: % ACh maximum at 30 μM; for IC50: decrease of the response elicited by an EC80 concentration of acetylcholine
Description: Human or rat M4 cDNA, along with the chimeric G protein Gqi5, were transfected into Chinese hamster ovary (CHO-K1) cells purchased from the American Type Culture Collection using Lipofectamine2000. M4/Gqr5/CHO cells were grown in Ham's F-12 medium containing 10% heat-inactivated fetal bovine serum (FBS), 20 mM HEPES, 500 μg/mL G418 sulfate, and 200 μg/mL Hygromycin B.
For high throughput measurement of agonist-evoked increases in intracellular calcium, CHO-K1 cells stably expressing muscarinic receptors were plated in growth medium lacking G418 and hygromycin at 15,000 cells/20 μL/well in Greiner 384-well black-walled, tissue culture (TC)-treated, clear-bottom plates (VWR). Cells were incubated overnight at 37° C. and 5% CO2. The next day, cells were washed using an ELX 405 (BioTek) with assay buffer; the final volume was then aspirated to 20 μL. Next, 20 μL of a 2.3 μM stock of Fluo-4/acetoxymethyl ester (Invitrogen, Carlsbad, CA), prepared as a 2.3 mM stock in DMSO and mixed in a 1:1 ratio with 10% (w/v) Pluronic F-127 and diluted in assay buffer, was added to the wells and the cell plates were incubated for 50 min at 37° C. and 5% CO2. Dye was removed by washing with the ELX 405 and the final volume was aspirated to 20 μL. Compound master plates were formatted in a 10 point concentration-response curve (CRC) format (1:3 dilutions) in 100% DMSO with a starting concentration of 10 or 1 mM using a BRAVO liquid handler (Agilent). Test compound CRCs were then transferred to daughter plates (240 nL) using the Echo acoustic plate reformatter (Labcyte, Sunnyvale, CA) and then diluted into assay buffer (40 μL) to a 2× stock using a Thermo Fisher Combi (Thermo Fisher Scientific, Waltham, MA).
Calcium flux was measured using the Functional Drug Screening System (FDSS) 6000 or 7000 (Hamamatsu Corporation, Tokyo, Japan) as an increase in the fluorescent static ratio. Compounds were applied to cells (20 μL, 2×) using the automated system of the FDSS at 2 seconds into the protocol and the data were collected at 1 Hz. At 143 s, 10 μL of an EC20 concentration of the muscarinic receptor agonist acetylcholine was added (5×), followed by the addition of 12 μL of an EC80 concentration of acetylcholine at the 268 s time point (5×). Agonist activity was analyzed as a concentration-dependent increase in calcium mobilization upon compound addition. Positive allosteric modulator activity was analyzed as a concentration-dependent increase in the EC20 acetylcholine response. Antagonist activity was analyzed as a concentration-dependent decrease in the EC80 acetylcholine response; for the purposes of the tables herein, an IC50 (inhibitory concentration 50) was calculated as a concentration-dependent decrease of the response elicited by an EC80 concentration of acetylcholine. Concentration-response curves were generated using a four-parameter logistical equation in XLFit curve fitting software (IDBS, Bridgewater, NJ) for Excel (Microsoft, Redmond, WA) or Prism (GraphPad Software, Inc., San Diego, CA) or the Dotmatics software platform (Dotmatics, Bishop's Stortford, UK).
Compounds were synthesized as described above. Activity (IC50 and Emin) was determined in the mAChR M4 cell-based functional assay as described above and the data are shown in Table 2.

Human M4 Emin [%]	IC50 [µM]	Compound
4	0.0134	[2H]C([2H])(C1CCOCC1)N1C[C@H]2C[C@H](Nc3ccc(-c4cc(F)c(S(C)(=N)=O)cc4F)nn3)C[C@H]2C1 (stereo partly drawn) [compound 1, (2,5-difluoro-4-(6-(((3aR,5s,6aS)-2-((tetrahydro-2H-pyran-4-yl)methyl-d2)octahydrocyclopenta[c]pyrrol-5-yl)amino)pyridazin-3-yl)phenyl)(imino)(methyl)-λ^6-sulfanone]
2	0.0396	[2H]C([2H])(C1CCOCC1)N1C[C@H]2C[C@H](Nc3ccc(-c4ccc(S(C)(=N)=O)cc4)nn3)C[C@H]2C1 (stereo partly drawn) [compound 2, imino(methyl)(4-(6-(((3aR,5s,6aS)-2-((tetrahydro-2H-pyran-4-yl)methyl-d2)octahydrocyclopenta[c]pyrrol-5-yl)amino)pyridazin-3-yl)phenyl)-λ^6-sulfanone]
3	0.0185	[2H]C([2H])([2H])N=S(C)(=O)c1cc(F)c(-c2ccc(N[C@H]3C[C@@H]4CN(C([2H])([2H])C5CCOCC5)C[C@@H]4C3)nn2)cc1F (stereo partly drawn) [compound 3, (2,5-difluoro-4-(6-(((3aR,5s,6aS)-2-((tetrahydro-2H-pyran-4-yl)methyl-d2)octahydrocyclopenta[c]pyrrol-5-yl)amino)pyridazin-3-yl)phenyl)(methyl)((methyl-d3)imino)-λ^6-sulfanone]
6	0.584	[2H]C([2H])(C1CCOCC1)N1C[C@H]2C[C@H](Nc3ccc(-c4cc(F)c(S(C)(=O)=NC(C)=O)cc4F)nn3)C[C@H]2C1 (stereo partly drawn) [compound 4, N-((2,5-difluoro-4-(6-(((3aR,5s,6aS)-2-((tetrahydro-2H-pyran-4-yl)methyl-d2)octahydrocyclopenta[c]pyrrol-5-yl)amino)pyridazin-3-yl)phenyl)(methyl)(oxo)-λ^6-sulfaneylidene)acetamide]
3	0.0754	[2H]C([2H])(C1CCOCC1)N1C[C@H]2C[C@H](Nc3ccc(-c4ccc(S(C)(=N)=O)cc4F)nn3)C[C@H]2C1 (stereo partly drawn) [compound 5, (3-fluoro-4-(6-(((3aR,5s,6aS)-2-((tetrahydro-2H-pyran-4-yl)methyl-d2)octahydrocyclopenta[c]pyrrol-5-yl)amino)pyridazin-3-yl)phenyl)(imino)(methyl)-λ^6-sulfanone]
3	0.188	[2H]C([2H])(C1CCOCC1)N1C[C@H]2C[C@H](Nc3ccc(-c4ccc(S(C)(=N)=O)c(F)c4)nn3)C[C@H]2C1 (stereo partly drawn) [compound 6, (2-fluoro-4-(6-(((3aR,5s,6aS)-2-((tetrahydro-2H-pyran-4-yl)methyl-d2)octahydrocyclopenta[c]pyrrol-5-yl)amino)pyridazin-3-yl)phenyl)(imino)(methyl)-λ^6-sulfanone]
3	0.04	CS(=N)(=O)c1cc(F)c(-c2ccc(N[C@H]3C[C@@H]4CN(CC5CCOCC5)C[C@@H]4C3)nn2)cc1F (stereo partly drawn) [compound 7, (2,5-difluoro-4-(6-(((3aR,5s,6aS)-2-((tetrahydro-2H-pyran-4-yl)methyl)octahydrocyclopenta[c]pyrrol-5-yl)amino)pyridazin-3-yl)phenyl)(imino)(methyl)-λ^6-sulfanone]
7	0.56	CS(=N)(=O)c1cc(F)c(-c2ccc(N[C@H]3C[C@@H]4CN(Cc5ccccn5)C[C@@H]4C3)nn2)cc1F (stereo partly drawn) [compound 8, (2,5-difluoro-4-(6-(((3aR,5s,6aS)-2-(pyridin-2-ylmethyl)octahydrocyclopenta[c]pyrrol-5-yl)amino)pyridazin-3-yl)phenyl)(imino)(methyl)-λ^6-sulfanone]
3	0.0184	CS(=N)(=O)c1cc(F)c(-c2ccc(N[C@H]3C[C@@H]4CN(CCC5CCOCC5)C[C@@H]4C3)nn2)cc1F (stereo partly drawn) [compound 9, (2,5-difluoro-4-(6-(((3aR,5s,6aS)-2-(2-(tetrahydro-2H-pyran-4-yl)ethyl)octahydrocyclopenta[c]pyrrol-5-yl)amino)pyridazin-3-yl)phenyl)(imino)(methyl)-λ^6-sulfanone]
2	0.0018	CS(=N)(=O)c1cc(F)c(-c2ccc(N[C@H]3C[C@@H]4CN(CC5CCCCC5)C[C@@H]4C3)nn2)cc1F (stereo partly drawn) [compound 10, (4-(6-(((3aR,5s,6aS)-2-(cyclohexylmethyl)octahydrocyclopenta[c]pyrrol-5-yl)amino)pyridazin-3-yl)-2,5-difluorophenyl)(imino)(methyl)-λ^6-sulfanone]
3	0.0862	[2H]C([2H])(C1CC(C)(C)OC(C)(C)C1)N1C[C@H]2C[C@H](Nc3ccc(-c4cc(F)c(S(C)(=N)=O)cc4F)nn3)C[C@H]2C1 (stereo partly drawn) [compound 11, (2,5-difluoro-4-(6-(((3aR,5s,6aS)-2-((2,2,6,6-tetramethyltetrahydro-2H-pyran-4-yl)methyl-d2)octahydrocyclopenta[c]pyrrol-5-yl)amino)pyridazin-3-yl)phenyl)(imino)(methyl)-λ^6-sulfanone]
2	0.0434	[2H]C([2H])(C1CCOCC1)N1C[C@H]2C[C@H](Nc3ccc(-c4ccc(S(C)(=O)=NC(F)(F)F)cc4)nn3)C[C@H]2C1 (stereo partly drawn) [compound 12, methyl(4-(6-(((3aR,5s,6aS)-2-((tetrahydro-2H-pyran-4-yl)methyl-d2)octahydrocyclopenta[c]pyrrol-5-yl)amino)pyridazin-3-yl)phenyl)((trifluoromethyl)imino)-λ^6-sulfanone]
3	0.0086	[2H]C([2H])(C1CCOCC1)N1C[C@H]2C[C@H](Nc3ccc(-c4ccc(S(C)(=N)=O)c(C(F)(F)F)c4)nn3)C[C@H]2C1 (stereo partly drawn) [compound 13, imino(methyl)(4-(6-(((3aR,5s,6aS)-2-((tetrahydro-2H-pyran-4-yl)methyl-d2)octahydrocyclopenta[c]pyrrol-5-yl)amino)pyridazin-3-yl)-2-(trifluoromethyl)phenyl)-λ^6-sulfanone]
